The structures appear in SMILES notation.

The record followed here is patent US20260258397A1, “REAGENTS AND SYSTEMS FOR […]” (priority 2023, published 2026).

Experiment [1] deals with PYR1 mutant receptors (ligand-dependent binding to HAB1). Kind of experiment: Yeast two-hybrid screens of PYR1 DSM and CB-S libraries for cannabinoid sensors.
For another experiment, the target named is T1, PYR1^WIN-M (Arabidopsis thaliana, UniProt O49686, A160I/D26G/F159A/H60P/K59Q/N90S/Y23H).
T1 construct: made in house; host or cells: E. coli
In words: PYR1 ELISA-like plate assay, immobilized PYR1^WIN-M with biotinylated ΔN-HAB1^T+. Type of experiment: binding. Particulars: PYR1^WIN-M ELISA-like format. As to the method:
PYR1 was immobilized overnight in clear plates, blocked with KPL milk diluent in buffer CBS ^17 (CBSM). All binding reactions were performed using CBSM. Detection was performed via binding a streptavidin-HRP conjugate to biotinylated ΔN-HAB1^T+ followed by incubation with a commercial TMB reagent. Lower limits of detection (LODs) were determined by linear regression of the response data in the low linear range using the formula LOD=3σy/m, where m is the slope of the response line and σy is the standard error of the y intercept using data combined from biological replicates.
Unconjugated 6×His-MBP-PYR1 variants were immobilized to Microlon clear plates (655081) using 100 μL of CBS without pH modification, at a protein concentration of 100 μg mL^−1, or 1.57 AM at 4° C. overnight. Wells assigned as no PYR controls received only CBS. Plates were sealed using Microseal B adhesive sealers (BioRad MSB-1001). […] The pellet was stored on ice until the blocked and washed plates were ready to receive the binding reactions. ΔN-HAB1^T+ was exchanged into CBSM with 1 mM DTT and 1 mM TCEP (CBSM++) using Zeba™ spin desalting columns (Thermo) were equilibrated with CBSM++. ΔN-HAB1^T+ was diluted to 10× the final binding reaction concentration and was immediately added to the pre-assembled assays in PCR plates, which were mixed by pipetting and transferred to the washed, blocked Microlon plates. […]

T1 sequence (O49686 whole entry Y23H/D26G/K59Q/H60P/N90S/F159A/A160I, other chains not shown): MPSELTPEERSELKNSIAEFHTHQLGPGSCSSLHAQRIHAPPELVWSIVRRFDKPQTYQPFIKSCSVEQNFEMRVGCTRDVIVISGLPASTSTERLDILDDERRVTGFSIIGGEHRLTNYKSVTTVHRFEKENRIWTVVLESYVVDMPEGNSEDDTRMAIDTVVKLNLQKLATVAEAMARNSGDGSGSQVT

With `Cc1c(C(=O)c2cccc3ccccc23)c2cccc3c2n1[C@H](CN1CCOCC1)CO3` [WIN 55,212-2], the “affinity of improved sensors” value in experiment [1] (CB-S2 library screened on 50 nM, 25 nM: JWH-015 PYR1 K59N/Y120H/F159L/A160G, JWH-016 V81I/Y120G/F159L/A160G, JWH-072 E4G/K59N/Y120H/F159L/A160G, WIN 55,212 E4G/Y23H/D26G/K59Q/F159A/A160I) is reported as “low nM affinity”. The “outcome of DSM library Y2H selection” value in experiment [1] (DSM library selected on 30 μM ligand, hits for 'pM concentrations' as printed) is “double mutant hits”. At PYR1^WIN-M, the “average LOD from two biological replicates” value amounted to 0.21 ng/ml.
